This assay addresses T1, PPARα (Homo sapiens, UniProt Q07869).
T1 construct: GAL4 (pM vector); expressed in transfected cells; host or cells: CV-1 cells (African green monkey kidney)
T1 sequence (Q07869 1-468): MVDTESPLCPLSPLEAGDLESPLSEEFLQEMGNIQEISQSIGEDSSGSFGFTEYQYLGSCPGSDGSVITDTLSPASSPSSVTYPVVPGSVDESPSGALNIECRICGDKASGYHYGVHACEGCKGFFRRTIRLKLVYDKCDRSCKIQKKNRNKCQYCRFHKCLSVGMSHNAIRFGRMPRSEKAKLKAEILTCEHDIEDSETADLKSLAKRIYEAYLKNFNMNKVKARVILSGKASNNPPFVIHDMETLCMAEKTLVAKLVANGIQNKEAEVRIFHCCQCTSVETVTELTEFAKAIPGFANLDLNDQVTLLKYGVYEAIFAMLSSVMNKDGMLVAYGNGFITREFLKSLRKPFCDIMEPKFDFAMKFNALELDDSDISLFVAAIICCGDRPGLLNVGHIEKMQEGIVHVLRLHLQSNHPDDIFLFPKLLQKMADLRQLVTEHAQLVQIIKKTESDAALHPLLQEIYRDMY
Description: PPARα ligand activity, GAL4-hPPARα luciferase reporter assay in CV-1 cells. The format is cell-based. To be noted: for PPARα ligand activity: 24 h, relative to non-treatment control (DMSO) = 100, average ± standard error. The method, then:
CV-1 cells (cultured cells derived from kidneys of male African green monkeys) were implanted on 24-well culture plates so as to be […] and cultured at 37° C. in 5% CO2 for 24 hours. As a medium, DMEM (Dulbecco's Modified Eagle Medium; manufactured by GIBCO) containing 10% FBS (fetal bovine serum) and a 10 mg/mL penicillin streptomycin solution was used. Using the Lipofectamine system (trade name; manufactured by Invitrogen Corporation), pM-hPPARγ and p4× UASg-tk-luc were transfected. The above-noted pM-hPPARγ was a chimeric protein-expression plasmid binding GAL4 gene (amino acid sequence 1-147) and human PPARγ ligand-binding site gene (amino acid sequence 204-505), whereas the above-noted p4× UASg-tk-luc was a reporter plasmid containing four copies of a responsive element (UAS) of GAL 4 upstream of a luciferase gene. About 24 hours after the transfection, samples of aurapten at respective concentrations (0.1, 1.0, 10, 50 and 100 μM) were added to the above-described media, followed by 24 hour incubation. The above-noted samples were prepared by dissolving aurapten in dimethyl sulfoxide (DMSO). Instead of the aurapten, DMSO was added to non-treated control media. After the incubation, measurement was made using a Dual-Luciferase Reporter Gene Assay system (trade name; manufactured by Promega Corporation).
Similarly to the measurement group, as a control group, pM (a plasmid from which PPARγ ligand-binding site gene was removed) was used for measurement instead of pM-hPPARγ. For each sample, the ratio between average luminescence intensities of the measurement group and the control group (n=4) (measurement group/control group) was calculated, and an activity relative to the non-treatment control was determined as the PPARγ ligand activity of the sample.
The PPARα ligand activity of aurapten was measured similarly to Example 1 except that pM-hPPARα was used instead of pM-hPPARγ and the aurapten concentrations were set to 0.1, 1.0, 10, 50 and 80 μM.
(Reporter assays use an easily measured gene product as a stand-in for the process of interest.)

SMILES strings stand for the structures.

Take `CC(C)=CCC/C(C)=C/COc1ccc2ccc(=O)oc2c1` [Aurapten, aurapten]: the “effect on PPARα activity (in words)” value (0.1-80 μM, increased in keeping with the concentration) is on record as “improved the activity of PPARα”. In addition, the PPARα ligand activity amounted to 234 ± 39.4 (aurapten 0.1 μM); 139 ± 38.3 (aurapten 1.0 μM); 302 ± 98.2 (aurapten 10 μM); 409 ± 27.8 (aurapten 50 μM); 1052 ± 232.9 (aurapten 80 μM).

These data come from patent publication US8802723B2, “Metabolic syndrome-improving agent and medicine, supplement, functional food and food additive containing the same” (ARKRAY, Inc., priority 2005, dated 2014).
